IC50 data for 24 molecules are collected here from US8716473B2, “Substituted benzotriazines and quinoxalines as inhibitors of P7OS6 kinase” (Sentinel Oncology Limited, priority 2009, dated 2014).

As a reminder, the pIC50 is the IC50 on a negative log10 scale, so that one unit is a factor of ten.

One assay relates to MCF-7 cells. Put plainly: MCF-7 proliferation assay (Alamar blue). Format: cell-based. The settings on record: Homo sapiens, MCF7, 72 h incubation, read-out: IC50 for inhibition of cell growth. The procedure: The following assay was used to determine the ability of test compounds to inhibit cell growth.
The following protocol was used: • 1) MCF-7 cells were seeded in 96-well plates at 5000 cells per well and allowed to adhere overnight prior to addition of compound or vehicle control. • 2) Test compounds were prepared from 10 mM DMSO stocks to give a final concentration range of 100 μM, 30 μM, 10 μM, 3 μM, 1 μM, 0.3 μM, 0.1 μM, 0.03 μM, 0.01 μM and vehicle control. The DMSO content was constant at 1%. • 3) Test compounds were incubated with the cells for 72 h at 37° C. 5% CO2 in a humidified atmosphere. • 4) Alamar blue 10% (v/v) was then added and incubated for a further 6 h, and fluorescent product detected using the BMG FLUOstar plate reader. • 5) Data were analysed using a 4-parameter logistic equation in Graph Pad Prism.
In general terms: Resazurin is reduced to fluorescent resorufin, in cell work by metabolically active cells.

The target of another assay is p70S6K (h) (Homo sapiens, UniProt P23443). Put plainly: Determination of p70S6 inhibitory activity (radiometric 33P-ATP filter assay). Format: biochemical. To be noted: 40 min at room temperature, read-out: IC50 against P70S6 kinase. The procedure:
The ability of compounds of the invention to inhibit P70S6 kinase was determined using the protocol below.
• 20 mM MOPS, 1 mM EDTA, 0.01% Brij-35, 5% Glycerol, 0.1% b-mercaptoethanol, 1 mg/mL BSA Method: • p70S6K (h)
In a final reaction volume of 25 μL, p70S6K (h) (5-10 mU) is incubated with 8 mM MOPS pH 7.0, 0.2 mM EDTA, 100 μM KKRNRTLTV, 10 mM Mg acetate and [γ-33P-ATP] (specific activity approx. 500 cpm/pmol, concentration as required). The reaction is initiated by the addition of the MgATP mix. After incubation for 40 minutes at room temperature, the reaction is stopped by the addition of 5 μL of a 3% phosphoric acid solution. 10 μL of the reaction mixture is then spotted onto a P30 filtermat and washed three times for 5 minutes in 75 mM phosphoric acid and once in methanol prior to drying and scintillation counting.

The test system of assay [1] is phosphorylation of S6 Ser235/236 in MCF-7 cells. Put plainly: Inhibition of P70S6K activity in whole cells: phospho-S6 ELISA in MCF-7 cells. The settings on record: Homo sapiens, MCF7, 2 h incubation, 1% FBS. Type of assay: cell-based. The procedure: The following assay provides IC50 values for inhibition of P70S6K activity in a whole cell assay by determining effects on the phosphorylation of S6^Ser235/236 in MCF-7 cells by ELISA.
The following protocol was used: • 1) MCF-7 cells were seeded in 96-well plates at a density of 7×10^3 cells per well and allowed to adhere for 6 h in media containing 10% FBS. • 2) The full serum media was replaced and cells incubated overnight in media containing 1% FBS, prior to addition of test compounds. • 3) Test compounds were prepared from 10 mM or 5 mM (BEZ-235) DMSO stocks to give final concentration ranges as indicated on graphs. DMSO was constant at a final concentration of 1%. • 4) Test compounds were incubated with cells in duplicate for 2 h at 37° C./5% CO2 in a humidified atmosphere. • 5) The media was removed and cells were lysed by freeze-thawing in cell lysis buffer. • 6) Detection of phosphorylated S6Ser235/236 was then carried out using a PathScan ELISA kit (Cell Signaling Technology #7205). • 7) Lysates were diluted 1:1 with sample diluent before being applied to wells coated with an antibody against phosphorylated-S6 protein. • 8) The ELISA was then performed as stated in the manufacturers' instructions. • 9) The raw data were normalised to control values and analysed using a 4-parameter logistic equation in GraphPad Prism.
(In general: An ELISA detects its analyte on a solid surface through an enzyme-linked reagent.)

pIC50: −log10 of the molar value. Structures can show the parent of a compound that is named as a salt.

p70S6K (h), sequence (P23443 whole entry): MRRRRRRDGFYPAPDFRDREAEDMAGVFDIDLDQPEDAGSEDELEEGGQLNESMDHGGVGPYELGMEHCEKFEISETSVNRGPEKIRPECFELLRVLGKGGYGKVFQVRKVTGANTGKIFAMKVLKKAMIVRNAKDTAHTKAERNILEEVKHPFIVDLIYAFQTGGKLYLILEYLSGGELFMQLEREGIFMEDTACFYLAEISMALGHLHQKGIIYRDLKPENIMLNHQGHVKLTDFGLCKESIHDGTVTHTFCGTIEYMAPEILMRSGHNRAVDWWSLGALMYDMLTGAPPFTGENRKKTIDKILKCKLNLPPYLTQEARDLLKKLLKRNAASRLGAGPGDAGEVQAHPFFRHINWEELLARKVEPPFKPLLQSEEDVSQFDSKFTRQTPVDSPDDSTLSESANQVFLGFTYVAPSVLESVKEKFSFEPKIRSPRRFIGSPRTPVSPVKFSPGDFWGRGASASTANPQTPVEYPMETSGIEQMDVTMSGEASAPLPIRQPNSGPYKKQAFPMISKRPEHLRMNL

As to `CCN(Cc1ccccc1)c1cnc2cc(-c3cn[nH]c3)ccc2n1` [Example 26, Benzyl-ethyl-[6-(1H-pyrazol-4-yl)-quinoxalin-2-yl]-amine], the negative-log IC50 (pIC50) with MCF-7 cells is > 4.30; on p70S6K (h) it was > 7.00.
For `CN(Cc1ccc(F)cc1)c1cnc2cc(-c3cn[nH]c3)ccc2n1` [Example 21, (4-Fluoro-benzyl)-methyl-[6-(1H-pyrazol-4-yl)-quinoxalin-2-yl]-amine], the figures for the pIC50 (with MCF-7 cells; in assay [1]; at p70S6K (h)) were > 4.30, > 5.30 and > 7.00, respectively.
The matching figures for `COc1cccc([C@@H](C)Nc2cnc3cc(-c4cn[nH]c4)ccc3n2)c1` [Example 50, [(R)-1-(3-Methoxy-phenyl)-ethyl]-[6-(1H-pyrazol-4-yl)-quinoxalin-2-yl]-amine hydrochloride]: > 5.00, > 6.00 and > 7.00.
Consider `c1cc(CNc2cnc3cc(-c4cn[nH]c4)ccc3n2)cs1` [Example 38, [6-(1H-Pyrazol-4-yl)-quinoxalin-2-yl]-thiophen-3-ylmethyl-amine], for which the figures for the pIC50 in the assay on MCF-7 cells and on p70S6K (h) were > 5.00 and > 7.00, respectively.
Turning to `COc1cccc(CN(C)c2cnc3cc(-c4cn[nH]c4)ccc3n2)c1` [Example 27, (3-Methoxy-benzyl)-methyl-[6-(1H-pyrazol-4-yl)-quinoxalin-2-yl]-amine], the negative logarithm of the IC50 (pIC50) with MCF-7 cells is > 4.30; in assay [1] it was > 6.00; on p70S6K (h) it was > 7.00.
The matching figures for `Clc1ccc(CNc2cnc3cc(-c4cn[nH]c4)ccc3n2)cc1` [Example 8, (4-Chloro-benzyl)-[6-(1H-pyrazol-4-yl)-quinoxalin-2-yl]-amine]: > 4.70, > 5.30 and > 7.00.
For `c1ccc(CCNc2cnc3cc(-c4cn[nH]c4)ccc3n2)cc1` [Example 25, Phenethyl-[6-(1H-pyrazol-4-yl)-quinoxalin-2-yl]-amine hydrochloride] the same measures were > 4.70, > 5.30 and > 7.00.
For `COc1cccc(CNc2cnc3cc(-c4cn[nH]c4)ccc3n2)c1` [Example 18, (3-Methoxy-benzyl)-[6-(1H-pyrazol-4-yl)-quinoxalin-2-yl]-amine] the same measures were > 5.00, > 6.00 and > 7.00.
Consider `Cc1cccc(CNc2cnc3cc(-c4cn[nH]c4)ccc3n2)c1` [Example 41, (3-Methyl-benzyl)-[6-(1H-pyrazol-4-yl)-quinoxalin-2-yl]-amine], for which the pIC50 was > 5.00 in the assay with MCF-7 cells, > 6.00 in assay [1] and > 7.00 at p70S6K (h).
For `c1cc(CNc2cnc3cc(-c4cn[nH]c4)ccc3n2)cc(N2CCOCC2)c1` [Example 7, (3-Morpholin-4-yl-benzyl)-[6-(1H-pyrazol-4-yl)-quinoxalin-2-yl]-amine hydrochloride] the same measures were > 4.70, > 5.30 and > 5.30.
For `Fc1ccc(CNc2cnc3cc(-c4cn[nH]c4)ccc3n2)cc1F` [Example 32, (3,4-Difluoro-benzyl)-[6-(1H-pyrazol-4-yl)-quinoxalin-2-yl]-amine] the same measures were > 4.30, > 5.30 and > 7.00.
For `c1ccc(CNc2cnc3cc(-c4cn[nH]c4)ccc3n2)cc1` [Example 1, Benzyl-[6-(1H-pyrazol-4-yl)-quinoxalin-2-yl]-amine] the same measures were > 5.00, > 5.30 and > 7.00.
In the case of `CN(C)CCOc1cccc(CNc2cnc3cc(-c4cn[nH]c4)ccc3n2)c1` [Example 31, [3-(2-Dimethylamino-ethoxy)-benzyl]-[6-(1H-pyrazol-4-yl)-quinoxalin-2-yl]-amine hydrochloride], the values for the pIC50 with MCF-7 cells and on p70S6K (h) were > 4.70 and > 5.30, respectively.
For `Clc1cccc(CNc2cnc3cc(-c4cn[nH]c4)ccc3n2)c1` [Example 9, (3-Chloro-benzyl)-[6-(1H-pyrazol-4-yl)-quinoxalin-2-yl]-amine], the figures for the negative-log IC50 (pIC50) (in the assay with MCF-7 cells; in assay [1]; on p70S6K (h)) were > 4.70, > 6.00 and > 7.00, respectively.
Regarding `OCCN(Cc1ccccc1)c1cnc2cc(-c3cn[nH]c3)ccc2n1` [Example 3, 2-{Benzyl-[6-(1H-pyrazol-4-yl)-quinoxalin-2-yl]-amino}-ethanol], the results for the negative logarithm of the IC50 (pIC50) (in the assay on MCF-7 cells; in assay [1]; at p70S6K (h)) were > 4.70, > 5.30 and > 7.00, respectively.
In the case of `Fc1ccccc1CNc1cnc2cc(-c3cn[nH]c3)ccc2n1` [Example 13, (2-Fluoro-benzyl)-[6-(1H-pyrazol-4-yl)-quinoxalin-2-yl]-amine hydrochloride], the negative-log IC50 (pIC50) in the assay with MCF-7 cells is > 4.70; at p70S6K (h), > 6.00.
On to `Fc1ccc(CNc2cnc3cc(-c4cn[nH]c4)ccc3n2)cc1` [Example 11, (4-Fluoro-benzyl)-[6-(1H-pyrazol-4-yl)-quinoxalin-2-yl]-amine hydrochloride], for which the pIC50 was > 5.00 in the assay on MCF-7 cells, > 5.30 in assay [1] and > 7.00 at p70S6K (h).
For `CN1CCN(c2cccc(CNc3cnc4cc(-c5cn[nH]c5)ccc4n3)c2)CC1` [Example 6, [3-(4-Methyl-piperazin-1-yl)-benzyl]-[6-(1H-pyrazol-4-yl)-quinoxalin-2-yl]-amine hydrochloride] the same measures were > 4.70, > 5.30 and > 6.00.
For the molecule `CN(Cc1cccc(F)c1)c1cnc2cc(-c3cn[nH]c3)ccc2n1` [Example 28, (3-Fluoro-benzyl)-methyl-[6-(1H-pyrazol-4-yl)-quinoxalin-2-yl]-amine], the pIC50 with MCF-7 cells was > 5.00; in assay [1] it was > 6.00; on p70S6K (h), > 7.00.
For `CN(Cc1ccccc1)c1cnc2cc(-c3cn[nH]c3)ccc2n1` [Example 2, Benzyl-methyl-[6-(1H-pyrazol-4-yl)-quinoxalin-2-yl]-amine hydrochloride] the same measures were > 4.70, > 5.30 and > 7.00.
The matching figures for `C[C@@H](Nc1cnc2cc(-c3cn[nH]c3)ccc2n1)c1ccccc1` [Example 33, ((R)-1-Phenyl-ethyl)-[6-(1H-pyrazol-4-yl)-quinoxalin-2-yl]-amine]: > 4.70, > 6.00 and > 7.00.
The matching figures for `COc1ccc(CNc2cnc3cc(-c4cn[nH]c4)ccc3n2)cc1` [Example 17, (4-Methoxy-benzyl)-[6-(1H-pyrazol-4-yl)-quinoxalin-2-yl]-amine]: > 5.00, > 5.30 and > 6.00.
For `C[C@H](Nc1cnc2cc(-c3cn[nH]c3)ccc2n1)c1cccc(F)c1` [Example 59, [(S)-1-(3-Fluoro-phenyl)-ethyl]-[6-(1H-pyrazol-4-yl)-quinoxalin-2-yl]-amine hydrochloride], the pIC50 in assay [1] was > 4.70; on p70S6K (h), > 5.30.
In the case of `Fc1cccc(CNc2cnc3cc(-c4cn[nH]c4)ccc3n2)c1` [Example 12, (3-Fluoro-benzyl)-[6-(1H-pyrazol-4-yl)-quinoxalin-2-yl]-amine hydrochloride], the pIC50 with MCF-7 cells was > 5.00; in assay [1] it was > 5.30; at p70S6K (h), > 7.00.
